Measurements published in publication PMC3723878 (PLoS ONE, 2013).
Substitutions are numbered along the chain they refer to.

Experiments:
α1A-AR [1] = biological target: T1, α1A-AR (Homo sapiens, UniProt P35348); design: expressed in transfected cells; method as in PMID 20978120; conditions: CHO cells used for Ca^2+ release experiments; cited from earlier work
T1 sequence (P35348 1-466): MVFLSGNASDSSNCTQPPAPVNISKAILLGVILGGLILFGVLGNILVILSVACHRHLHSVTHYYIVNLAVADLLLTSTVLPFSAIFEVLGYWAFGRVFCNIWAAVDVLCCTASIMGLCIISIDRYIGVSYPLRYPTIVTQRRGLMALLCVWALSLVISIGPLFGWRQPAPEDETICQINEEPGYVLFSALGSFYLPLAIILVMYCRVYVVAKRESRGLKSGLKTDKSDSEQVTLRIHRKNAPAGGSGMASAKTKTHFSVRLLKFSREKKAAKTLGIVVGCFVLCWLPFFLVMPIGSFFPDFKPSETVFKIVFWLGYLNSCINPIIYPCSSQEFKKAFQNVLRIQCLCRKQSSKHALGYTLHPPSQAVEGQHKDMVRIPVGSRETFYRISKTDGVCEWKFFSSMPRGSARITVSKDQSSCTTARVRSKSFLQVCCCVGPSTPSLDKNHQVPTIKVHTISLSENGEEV

α1A-AR [2] = biological target: T1, α1A-AR; type: binding; design: expressed in transfected cells; host or cells: COS-7, transient (calcium phosphate); conditions: ^125I-HEAT 0.4 nM, HEAT 5 µM alone
Procedure: Binding experiments were performed in a 100 µL reaction mix at room temperature in buffer composed of 50 mM Tris-HCl, pH 7.4, 10 mM MgCl2, 1 g/L BSA. Reactions were stopped by filtration through 96 GF/C filter plates pre-incubated with 0.5% polyethylenimine.
Binding data were analyzed by nonlinear regression using the KaleidaGraph 4.0 software (Synergy software, Reading, PA). pKD values and Bmax (number of binding sites) were determined by applying a nonlinear regression to data obtained with saturation binding assays. The nonlinear regression used was BS = (Bmax*A)/KD+A, where BS is the specific binding, Bmax the number of binding sites, A the concentration of radioligand, and KD the dissociation constant of the radioligand. Data resulting from competition binding assays were analyzed using the Hill equation for IC50 and curve slope estimations. […] The linear curves were analyzed with IC50 = Ki+(L/KD)*Ki. Dissociation kinetics were analyzed using a simple equation of exponential decay BS * exp (-Koff*t), where BS is the specific binding at time zero and Koff is the dissociation rate constant. Results are expressed as mean ± s.e. mean from n independent experiments. One-way Anova test was used to compare values. A p<0.05 was accepted for statistical significance.

[3] = biological target: T2, human α1A-AR D106A variant (Homo sapiens, UniProt P35348, D106A); assay: Saturation binding of ^125I-HEAT
T2 construct: expressed in transfected cells; host or cells: COS-7, transient (calcium phosphate)
T2 sequence (P35348 1-466 D106A): T1 sequence (P35348 1-466) with D106A

human α1A-AR WT = biological target: T3, human α1A-AR WT (Homo sapiens, UniProt P35348); assay: Saturation binding of ^125I-HEAT
T3 construct: expressed in transfected cells; host or cells: COS-7, transient (calcium phosphate)
T3 sequence (P35348 1-466): T1 sequence (P35348 1-466)

O=C1c2ccccc2CCC1CNCCc1ccc(O)c([125I])c1 (stereo not drawn) [125I-HEAT]
pKD (α1A-AR [1]): 9.2±0.09 | ^125I-HEAT dissociation rate (Koff) (α1A-AR [2]): 0.00103 s⁻¹ | ^125I-HEAT Ratio (loss of affinity relative to WT) ([3]; D106A): 1.7 | ^125I-HEAT pKd ([3]; D106A (3.32), saturation binding, n = 3–6): 9.82±0.11 | ^125I-HEAT Ratio (affinity relative to WT) (human α1A-AR WT): 1 | ^125I-HEAT pKd (human α1A-AR WT; saturation binding, n = 3–6): 10.05±0.14
